Assay results reported in US20260184710A1, “CASITAS B-LINEAGE LYMPHOMA PROTOONCOGENE B (CBL-B) DEGRADING COMPOUNDS AND ASSOCIATED METHODS OF USE” (Arvinas Operations, Inc., priority 2022, published 2026).

Columns and labels:
Cbl-b [1] = biological target: T1, Cbl-b (Homo sapiens, UniProt Q13191); assay: Cbl-b Degradation Method A (FACS, anti-Cbl-b antibody staining); type: cell-based; conditions: Cbl-b-HiBit KI Jurkat Cells, incubated at least 20 hours; for DC50: half maximal degradation, read-out: Cbl-b Degredation Method A IC50; for Dmax: Jurkat, maximum degradation observed, read-out: Cbl-b Degredation Method A Dmax (%)
T1 construct: Cbl-b-HiBit KI Jurkat Cells were purchased from Promega; host or cells: Cbl-b-HiBiT knock-in Jurkat cells
Procedure, shortened: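 Readout is flow cytometry of fixed, permeabilized cells immunostained for Cbl-b (primary 1:200, AF488 secondary). Cells were Cbl-b-HiBit knock-in Jurkat, exposed to compound ≥20 h at 37 °C; half-maximal degradation concentration (DC50) and maximal degradation (Dmax) calculated relative to control.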

Cbl-b [2] = biological target: T1, Cbl-b; assay: Cbl-b Degradation Method B (Nano-Glo HiBiT lytic detection); type: cell-based; conditions: Cbl-b-HiBit KI Jurkat Cells, incubated at least 6-24 hours; for DC50: half maximal degradation, read-out: Cbl-b Degredation Method B IC50
Procedure, shortened: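 An 11-point, 3-fold compound dilution was applied for 6-24 hours to Jurkat cells carrying HiBiT-tagged endogenous Cbl-b. Lytic HiBiT luminescence quantified residual protein. Outputs are DC50 and Dmax relative to DMSO control.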

T1 sequence (Q13191 whole entry): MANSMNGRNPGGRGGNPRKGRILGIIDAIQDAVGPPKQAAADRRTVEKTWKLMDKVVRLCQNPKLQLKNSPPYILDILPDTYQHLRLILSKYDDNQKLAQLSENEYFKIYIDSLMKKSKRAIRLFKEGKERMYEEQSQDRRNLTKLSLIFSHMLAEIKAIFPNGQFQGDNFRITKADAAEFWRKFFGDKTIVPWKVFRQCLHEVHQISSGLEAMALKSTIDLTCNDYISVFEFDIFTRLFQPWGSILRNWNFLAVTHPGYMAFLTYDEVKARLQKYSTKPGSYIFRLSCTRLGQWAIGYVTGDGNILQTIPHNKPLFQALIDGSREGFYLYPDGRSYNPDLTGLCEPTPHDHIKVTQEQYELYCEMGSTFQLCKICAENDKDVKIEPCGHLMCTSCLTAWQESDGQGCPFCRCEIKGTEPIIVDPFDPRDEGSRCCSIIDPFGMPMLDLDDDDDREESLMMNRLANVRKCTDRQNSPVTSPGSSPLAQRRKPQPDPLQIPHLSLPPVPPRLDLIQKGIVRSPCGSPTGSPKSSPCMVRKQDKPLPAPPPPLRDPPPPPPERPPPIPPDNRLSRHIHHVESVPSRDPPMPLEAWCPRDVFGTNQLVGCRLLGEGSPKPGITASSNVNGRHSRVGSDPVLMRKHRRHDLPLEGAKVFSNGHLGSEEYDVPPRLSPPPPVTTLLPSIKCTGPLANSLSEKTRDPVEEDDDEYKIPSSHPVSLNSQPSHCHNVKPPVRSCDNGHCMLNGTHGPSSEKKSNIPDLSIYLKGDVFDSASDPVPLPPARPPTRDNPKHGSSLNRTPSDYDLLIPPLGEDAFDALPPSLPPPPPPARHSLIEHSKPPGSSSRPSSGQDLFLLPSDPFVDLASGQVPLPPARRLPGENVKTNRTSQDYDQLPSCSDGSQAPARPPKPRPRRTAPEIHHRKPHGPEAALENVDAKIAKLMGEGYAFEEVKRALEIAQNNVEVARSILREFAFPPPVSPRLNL

SMILES | DC50 (Cbl-b [1]) [nM] | Dmax (Cbl-b [1]) [%] | DC50 (Cbl-b [2]) [nM] | Dmax (Cbl-b [2]; maximum degradation observed, read-out: Cbl-b Degredation Method B Dmax (%)) [%]
Cn1cnnc1C[C@]1(c2cccc(N3Cc4c(cc(CN5CCN(C[C@H]6CC[C@H](OC7CCN(c8ccc9c(c8)CC(=O)N9C8CCC(=O)NC8=O)CC7)CC6)CC5)cc4C(F)(F)F)C3=O)c2)C[C@H](C#N)C1 (stereo partly shown) [Example 219, (1r,3r)-3-[(4-methyl-4H-1,2,4-triazol-3-yl)methyl]-3-(3-{1-oxo-6-[(4-{[(1r,4r)-4-({1-[1-(2,6-dioxopiperidin-3-yl)-2-oxo-2,3-dihydro-1H-indol-5-yl]piperidin-4-yl}oxy)cyclohexyl]methyl}piperazin-1-yl)methyl]-4-(trifluoromethyl)-2,3-dihydro-1H-isoindol-2-yl}phenyl)cyclobutane-1-carbonitrile] | < 5 | > 70 | < 5 | > 70
Cn1cnnc1CC1(c2cccc(N3Cc4c(cc(CN5CCC(N6CCC7(CCN(c8ccc9c(c8)C(=O)N(C8CCC(=O)NC8=O)C9=O)CC7)CC6)CC5)cc4C(F)(F)F)C3=O)c2)COC1 (stereo not shown) [Example 100, 2-(2,6-dioxopiperidin-3-yl)-5-[9-(1-{[2-(3-{3-[(4-methyl-4H-1,2,4-triazol-3-yl)methyl]oxetan-3-yl}phenyl)-3-oxo-7-(trifluoromethyl)-2,3-dihydro-1H-isoindol-5-yl]methyl}piperidin-4-yl)-3,9-diazaspiro[5.5]undecan-3-yl]-2,3-dihydro-1H-isoindole-1,3-dione] | > 500 | < 35 | > 500 | 
